Read-outs that look alike come from different tables or passages of the source.
Experiments:
[1] = tested on: SARS-CoV-2 B.1.1.7 (Alpha); type: cell-based; settings: 1% NCT, 37° C.
SARS-CoV-2 = type: in vivo, human; settings: Example 3 patient, Day 5, first 1% NCT nasal spray, 2 puffs in each nostril
[2] = tested on: SARS-CoV-2 B.1.351 (Beta); type: cell-based; settings: 1% NCT, 37° C.

O=S(=O)(O)CCNCl [NCT, N-chlorotaurine]
reduction of infected cells ([1]; after 1 min): 42-54%
reduction of infected cells ([1]; after 5 min): 50-71%
reduction of infected cells ([1]; after 10 min): 62-99%
reduction of infected cells ([1]; after 20 min): 99-100%
reduction of infected cells ([1]; after 30 min): 100%
time until nasal passages cleared and nasal secretion dried up (SARS-CoV-2): ≤ 30 min
reduction of infected cells ([2]; after 1 min (not significant, p=0.313)): 0-48%
reduction of infected cells ([2]; after 5 min): 54-72%
reduction of infected cells ([2]; after 10 min): 82-97%
reduction of infected cells ([2]; after 20 min): 99-100%
reduction of infected cells ([2]; after 30 min): 100%

From US12171732B2, “Compositions and use of N-chlorotaurine for treatment and prevention of respiratory infections” (priority 2021, dated 2024)
